Measured values as given in US20190231751A1, “TREATMENT OF FIBROTIC DISORDERS WITH JUN N-TERMINAL KINASE INHIBITORS” (Imago Pharmaceuticals, Inc., priority 2016, published 2019).

How the values were obtained:
Format in all cases: biochemical
JNK3 = JNK3 (Homo sapiens, UniProt P53779); assay: In vitro JNK3 inhibition (Table 1)
Experimental: (§1) In vitro assays for the determination of JNK activities are known in the art and exemplary assay formats are described herein.
(§2) IC50 values in Table 1 were determined using the procedures as described in U.S. Pat. No. 8,450,353.

JNK1 = JNK1 (Homo sapiens, UniProt P45983); assay: In vitro JNK1 inhibition (Table 1)
Experimental: as §1, §2

JNK2 = JNK2 (Homo sapiens, UniProt P45984); assay: In vitro JNK2 inhibition (Table 1)
Experimental: as §1, §2

JNK1, sequence (P45983 whole entry, species assumed): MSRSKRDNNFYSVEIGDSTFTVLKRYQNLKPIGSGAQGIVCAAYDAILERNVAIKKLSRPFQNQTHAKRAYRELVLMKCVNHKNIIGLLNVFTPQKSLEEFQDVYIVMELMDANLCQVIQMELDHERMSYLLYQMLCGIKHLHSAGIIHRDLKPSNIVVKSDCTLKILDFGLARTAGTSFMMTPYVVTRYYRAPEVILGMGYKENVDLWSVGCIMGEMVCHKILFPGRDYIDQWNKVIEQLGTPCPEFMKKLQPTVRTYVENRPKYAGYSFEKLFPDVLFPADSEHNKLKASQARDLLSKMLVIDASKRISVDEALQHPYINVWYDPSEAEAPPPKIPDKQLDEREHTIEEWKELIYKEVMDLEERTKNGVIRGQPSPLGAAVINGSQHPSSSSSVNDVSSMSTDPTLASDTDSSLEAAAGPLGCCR
JNK3, sequence (P53779 whole entry, species assumed): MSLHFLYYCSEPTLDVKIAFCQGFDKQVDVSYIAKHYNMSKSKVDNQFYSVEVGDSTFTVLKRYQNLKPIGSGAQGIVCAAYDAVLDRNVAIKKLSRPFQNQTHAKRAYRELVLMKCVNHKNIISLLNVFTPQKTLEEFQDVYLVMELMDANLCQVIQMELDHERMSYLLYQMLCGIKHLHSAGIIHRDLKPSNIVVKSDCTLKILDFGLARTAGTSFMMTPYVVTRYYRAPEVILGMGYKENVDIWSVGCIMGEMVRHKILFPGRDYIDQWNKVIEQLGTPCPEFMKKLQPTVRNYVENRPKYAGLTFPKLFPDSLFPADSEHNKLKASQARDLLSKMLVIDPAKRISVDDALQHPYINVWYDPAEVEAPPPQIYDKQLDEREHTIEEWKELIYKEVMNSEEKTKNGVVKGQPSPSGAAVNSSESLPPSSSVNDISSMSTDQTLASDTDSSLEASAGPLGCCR
JNK2, sequence (P45984 whole entry, species assumed): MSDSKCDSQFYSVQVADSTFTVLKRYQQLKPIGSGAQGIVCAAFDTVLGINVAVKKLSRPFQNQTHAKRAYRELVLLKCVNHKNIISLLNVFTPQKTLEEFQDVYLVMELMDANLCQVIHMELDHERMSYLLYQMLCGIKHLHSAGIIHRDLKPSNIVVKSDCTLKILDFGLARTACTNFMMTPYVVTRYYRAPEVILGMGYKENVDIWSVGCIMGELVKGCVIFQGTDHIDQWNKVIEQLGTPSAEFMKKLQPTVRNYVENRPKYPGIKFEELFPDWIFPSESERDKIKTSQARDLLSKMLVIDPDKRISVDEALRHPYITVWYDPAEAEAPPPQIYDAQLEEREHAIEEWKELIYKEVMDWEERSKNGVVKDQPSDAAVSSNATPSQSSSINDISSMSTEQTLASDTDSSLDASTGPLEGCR

Row | Structure (SMILES) | IC50 (JNK3) [nM] | IC50 (JNK1) [nM] | IC50 (JNK2) [nM]
1 | N#Cc1csc(NC(=O)Cn2c(=O)ccc3cc(C(F)(F)F)ccc32)c1-c1nccs1 [N-(4-cyano-3-(thiazol-2-yl)thiophen-2-yl)-2-(2-oxo-6-(trifluoromethyl)quinolin-1(2H)-yl)acetamide] | < 100 | < 100 | < 100
2 | Cc1csc(NC(=O)CN2C(=O)CCc3ccccc32)c1-c1ncn[nH]1 [N-(4-methyl-3-(1H-1,2,4-triazol-5-yl)thiophen-2-yl)-2-(2-oxo-3,4-dihydroquinolin-1(2H)-yl)acetamide] | < 100 | < 100 | < 10000
3 | Cc1n[nH]c(-c2c(C)csc2NC(=O)CN2C(=O)CCc3ccccc32)n1 [N-(4-methyl-3-(3-methyl-1H-1,2,4-triazol-5-yl)thiophen-2-yl)-2-(2-oxo-3,4-dihydroquinolin-1(2H)-yl)acetamide] | < 100 | < 100 | < 100

Further lines, results first:

Row | IC50 (JNK3) [nM] | IC50 (JNK1) [nM] | IC50 (JNK2) [nM] | Structure (SMILES)
4 | < 100 | < 100 | < 100 | N#Cc1csc(NC(=O)CN2C(=O)CCc3ncccc32)c1-c1nccs1 [N-(4-cyano-3-(thiazol-2-yl)thiophen-2-yl)-2-(2-oxo-3,4-dihydro-1,5-naphthyridin-1(2H)-yl)acetamide]
5 | < 100 | < 100 | < 100 | N#Cc1csc(NC(=O)Cn2c(=O)ccc3cc(C(F)(F)F)ccc32)c1-c1cscn1 [N-(4-cyano-3-(thiazol-4-yl)thiophen-2-yl)-2-(2-oxo-6-(trifluoromethyl)quinolin-1(2H)-yl)acetamide]
